One test has as its target BRD4(BD1) (Homo sapiens (Human), UniProt O60885). Put plainly: In vitro enzyme inhibition assay (BRD4 AlphaScreen). It is filed as binding. Summed up:
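AlphaScreen proximity readout, using streptavidin donor and Ni-chelate acceptor beads at 5 μg/mL final, monitors biotin-H4 tetraacetylated peptide interaction with purified His-tagged BRD4.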
Background: Bead proximity is the source of the signal in Alpha formats.

The subject of test [1] is Raji, human Burkitts lymphoma cells. The test is described as follows: Cell-MTS proliferation assay, Raji. It counts as cell-based. As to conditions: 168 hr. Summed up: (§1)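 Seven-day colorimetric MTS assay; compound at 11 concentrations from 100 μM down to 2.0 nM final, added a day after plating. IC50 from OD490 normalised to DMSO controls.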
(Formazan colour is commonly taken as a measure of viable cells.)

Test [2] relates to HL-60, human proleukemia cells. Put plainly: Cell-MTS proliferation assay, HL-60. It is filed as cell-based. To be noted: 168 hr. An outline of the steps:
as §1

Test [3] concerns NCI-H460, human non-small cell lung cancer cells. The test is described as follows: Cell-MTS proliferation assay, NCI-H460. It counts as cell-based. To be noted: 168 hr. Summed up:
as §1

Where [4] appears, read: in vitro enzyme inhibition assay.
The mark [5] stands for this setting: Homo sapiens, Raji, Cell-MTS proliferation.
[6] abbreviates: Homo sapiens, HL-60, Cell-MTS proliferation.
[7] abbreviates: Homo sapiens, NCI-H460, Cell-MTS proliferation.
Where [8] appears, read: Homo sapiens, Cell-MTS proliferation, Raji cells.
The mark [9] stands for this setting: Homo sapiens, Cell-MTS proliferation, HL-60 cells.
Where [10] appears, read: Homo sapiens, Cell-MTS proliferation, NCI-H460 cells.
Setting [11] is: Homo sapiens, Raji, Cell-MTS, class symbols A/B/C.
Setting [12] is: Homo sapiens, HL-60, Cell-MTS, class symbols A/B/C.
Setting [13] is: Homo sapiens, NCI-H460, Cell-MTS, class symbols A/B/C.

Where two headings read alike, the source gives them in different places. A value given as a limit tells only on which side of the number the result lay.

As a reminder, the IC50 is the concentration that inhibits the measured activity by half. Low values mean inhibition by little substance, high ones a need for much substance.

For `CCS(=O)(=O)c1ccc(NCC2CC2)c(-c2cn(C)c(=O)c3ccccc23)c1` [Example 193, 4-[2-(cyclopropylmethylamino)-5-ethylsulfonylphenyl]-2-methylisoquinolin-1-one], the IC50 on BRD4(BD1) (setting [4]) is under 500 nM; in test [1] (setting [5]), under 500 nM; in test [2] (setting [6]) it was under 500 nM; in test [3] (setting [7]), over 5000 nM.
Turning to `CCn1cc(-c2cc(S(C)(=O)=O)ccc2NCC2CC2)cc(C)c1=O` [Example 428, 5-[2-(cyclopropylmethylamino)-5-methylsulfonylphenyl]-1-ethyl-3-methylpyridin-2-one], the IC50 against BRD4(BD1) (setting [4]) was under 500 nM; in test [1] (setting [8]), 500 to 5000 nM; in test [2] (setting [9]), 500 to 5000 nM; in test [3] (setting [10]), over 5000 nM.
Take `Cc1cc(-c2cc(S(C)(=O)=O)ccc2NCC2CC2)cn(C)c1=O` [Example 462, 5-[2-(cyclopropylmethylamino)-5-methylsulfonylphenyl]-1,3-dimethylpyridin-2-one]: the IC50 is under 500 nM against BRD4(BD1) (setting [4]), under 500 nM in test [1] (setting [8]), under 500 nM in test [2] (setting [9]) and over 5000 nM in test [3] (setting [10]).
With `CCS(=O)(=O)Nc1cnc(OCC2CC2)c(-c2cn(C)c(=O)c3oc(F)cc23)c1` [Example 261], the IC50 is under 500 nM at BRD4(BD1) (setting [4]), under 500 nM in test [1] (setting [5]), under 500 nM in test [2] (setting [6]) and over 5000 nM in test [3] (setting [7]).
Regarding `COc1cc(-c2nc(S(C)(=O)=O)ncc2Oc2ccc(F)cc2F)cn(C)c1=O` [Example 150, 5-[5-(2,4-difluorophenoxy)-2-methylsulfonylpyrimidin-4-yl]-3-methoxy-1-methylpyridin-2-one], the IC50 was under 500 nM against BRD4(BD1) (setting [4]), 500 to 5000 nM in test [1] (setting [5]), 500 to 5000 nM in test [2] (setting [6]) and over 5000 nM in test [3] (setting [7]).
As to `CCS(=O)(=O)c1ccc(OCC2CC2)c(-c2cn(C)c(=O)c3sc(C(N)=O)cc23)c1` [Example 265, 4-[2-(cyclopropylmethoxy)-5-ethylsulfonylphenyl]-6-methyl-7-oxothieno[2,3-c]pyridine-2-carboxamide], the IC50 against BRD4(BD1) (setting [4]) is under 500 nM; in test [1] (setting [5]), under 500 nM; in test [2] (setting [6]), under 500 nM; in test [3] (setting [7]) it was over 5000 nM.
As for `Cc1cc(-c2nc(NS(C)(=O)=O)ncc2OCC2CC2)cn(C)c1=O` [Example 153, N-[5-(cyclopropylmethoxy)-4-(1,5-dimethyl-6-oxopyridin-3-yl)pyrimidin-2-yl]methanesulfonamide], the IC50 was under 500 nM against BRD4(BD1) (setting [4]), 500 to 5000 nM in test [1] (setting [5]), 500 to 5000 nM in test [2] (setting [6]) and over 5000 nM in test [3] (setting [7]).
Regarding `CCS(=O)(=O)Nc1ccc(Cl)c(-c2cn(C)c(=O)c3ccc(F)cc23)c1` [Example 50, N-[4-chloro-3-(6-fluoro-2-methyl-1-oxoisoquinolin-4-yl)phenyl] ethanesulfonamide], the IC50 against BRD4(BD1) (class symbols A/B/C) is under 500 nM; in test [1] (setting [11]), 500 to 5000 nM; in test [2] (setting [12]), under 500 nM; in test [3] (setting [13]) it was 500 to 5000 nM.
For the compound `CCS(=O)(=O)Nc1ccc(OCC2CC2)c(-c2cn(C)c(=O)c3occc23)c1` [Example 255, N-[4-(cyclopropylmethoxy)-3-(6-methyl-7-oxofuro[2,3-c]pyridine-4-yl)phenyl]ethanesulfonamide], the IC50 against BRD4(BD1) (setting [4]) is under 500 nM; in test [1] (setting [5]), under 500 nM; in test [2] (setting [6]) it was under 500 nM; in test [3] (setting [7]), over 5000 nM.
`CCS(=O)(=O)c1ccc(OCC2CC2)c(-c2cc(Cl)c(=O)n(C)c2)c1` [Example 272, 3-chloro-5-[2-(cyclopropylmethoxy)-5-ethylsulfonylphenyl]-1-methylpyridin-2-one]: the IC50 is under 500 nM at BRD4(BD1) (setting [4]), under 500 nM in test [1] (setting [5]), under 500 nM in test [2] (setting [6]) and over 5000 nM in test [3] (setting [7]).
With `CC(=O)Nc1ccc(S(C)(=O)=O)cc1-c1cn(C)c(=O)c2ccccc12` [Example 222, N-[2-(2-methyl-1-oxoisoquinolin-4-yl)-4-methylsulfonylphenyl]acetamide], the IC50 (at BRD4(BD1) (setting [4]); in test [1] (setting [5]); in test [2] (setting [6]); in test [3] (setting [7])) was over 5000 nM each time.
In the case of `CCS(=O)(=O)Nc1ncc(Oc2ccc(F)cc2F)c(-c2cc(C)c(=O)n(C)c2)n1` [Example 169, N-[5-(2,4-difluorophenoxy)-4-(1,5-dimethyl-6-oxopyridin-3-yl)pyrimidin-2-yl]ethanesulfonamide], the IC50 is under 500 nM at BRD4(BD1) (setting [4]), under 500 nM in test [1] (setting [5]), under 500 nM in test [2] (setting [6]) and over 5000 nM in test [3] (setting [7]).
For the compound “4-[5-(cyclopropylmethoxy)-2-methylsulfonylpyridin-4-yl]-7-fluoro-2-methylisoquinolin-1-one [Example 203]”, the IC50 was under 500 nM against BRD4(BD1) (setting [4]), under 500 nM in test [1] (Cell-MTS proliferation), under 500 nM in test [2] (Cell-MTS proliferation) and over 5000 nM in test [3] (Cell-MTS proliferation).
For `Cn1cc(-c2cc(S(C)(=O)=O)ccc2OC2CCOCC2)c2ccccc2c1=O` [Example 176, 2-methyl-4-[5-methylsulfonyl-2-(oxan-4-yloxy)phenyl]isoquinolin-1-one], the IC50 was under 500 nM against BRD4(BD1) (setting [4]), under 500 nM in test [1] (setting [5]), under 500 nM in test [2] (setting [6]) and over 5000 nM in test [3] (setting [7]).
`CCOc1ccc(S(C)(=O)=O)cc1-c1cn(C)c(=O)c2ccccc12` [Example 177, 4-(2-ethoxy-5-methylsulfonylphenyl)-2-methylisoquinolin-1-one]: the IC50 against BRD4(BD1) (setting [4]) was under 500 nM; in test [1] (setting [5]), 500 to 5000 nM; in test [2] (setting [6]) it was under 500 nM; in test [3] (setting [7]), over 5000 nM.
As for `Cn1cc(-c2cc(S(C)(=O)=O)ccc2O[C@H]2CC[C@H](O)CC2)c2cc(F)ccc2c1=O` [Example 186, 6-fluoro-4-[2-(trans-4-hydroxycyclohexyl)oxy-5-methylsulfonylphenyl]-2-methylisoquinolin-1-one], the IC50 was under 500 nM on BRD4(BD1) (setting [4]), under 500 nM in test [1] (setting [5]), under 500 nM in test [2] (setting [6]) and over 5000 nM in test [3] (setting [7]).
For `Cn1cc(-c2ccc3c(=O)n(C)cc(-c4cc(S(C)(=O)=O)ccc4OCC4CC4)c3c2)cn1` [Example 46, 4-[2-(cyclopropylmethoxy)-5-methylsulfonylphenyl]-2-methyl-6-(1-methylpyrazol-4-yl)isoquinolin-1-one], the IC50 at BRD4(BD1) (class symbols A/B/C) was under 500 nM; in test [1] (setting [11]) it was under 500 nM; in test [2] (setting [12]), under 500 nM; in test [3] (setting [13]), over 5000 nM.
For the compound `CCS(=O)(=O)c1ccc(OCC2CC2)c(-c2cn(C)c(=O)cc2C)c1` [Example 466, 5-[2-(cyclopropylmethoxy)-5-ethylsulfonylphenyl]-1,4-dimethylpyridin-2-one], the IC50 against BRD4(BD1) (setting [4]) was under 500 nM; in test [1] (setting [8]), under 500 nM; in test [2] (setting [9]), under 500 nM; in test [3] (setting [10]), over 5000 nM.
As for `Cn1cc(-c2cc(NS(C)(=O)=O)ccc2Oc2ccc(F)cc2F)ccc1=O` [Example 100, N-[4-(2,4-difluorophenoxy)-3-(1-methyl-6-oxopyridin-3-yl)phenyl]methanesulfonamide], the IC50 at BRD4(BD1) is under 500 nM; in test [1] (setting [11]), under 500 nM; in test [2] (setting [12]) it was under 500 nM; in test [3] (setting [13]), over 5000 nM.
Consider `CCS(=O)(=O)Nc1ccc(OCC2CC2)c(-c2cn(C)c(=O)c3sc(C(N)=O)cc23)c1` [Example 266, 4-[2-(cyclopropylmethoxy)-5-(ethylsulfonylamino)phenyl]-6-methyl-7-oxothieno[2,3-c]pyridine-2-carboxamide], for which the IC50 was under 500 nM against BRD4(BD1) (setting [4]), under 500 nM in test [1] (setting [5]), under 500 nM in test [2] (setting [6]) and over 5000 nM in test [3] (setting [7]).
As to `Cn1cc(-c2cc(NS(C)(=O)=O)ccc2Oc2ccc(F)cc2F)cc(F)c1=O` [Example 271, N-[4-(2,4-difluorophenoxy)-3-(5-fluoro-1-methyl-6-oxopyridin-3-yl)phenyl]methanesulfonamide], the 50% inhibitory concentration (IC50) is under 500 nM at BRD4(BD1) (setting [4]), under 500 nM in test [1] (setting [5]), under 500 nM in test [2] (setting [6]) and over 5000 nM in test [3] (setting [7]).
Consider `Cn1cc(-c2cc(S(C)(=O)=O)ccc2OCC2CC2)c2ccc(F)cc2c1=O` [Example 91, 4-[2-(cyclopropylmethoxy)-5-methylsulfonylphenyl]-7-fluoro-2-methyl-isoquinolin-1-one], for which the IC50 against BRD4(BD1) (class symbols A/B/C) is under 500 nM; in test [1] (setting [11]) it was under 500 nM; in test [2] (setting [12]), under 500 nM; in test [3] (setting [13]) it was over 5000 nM.
On to `Cc1cc(-c2cc(S(C)(=O)=O)ccc2OCC2CCC2)cn(C)c1=O` [Example 459, 5-[2-(cyclobutylmethoxy)-5-methylsulfonylphenyl]-1,3-dimethylpyridin-2-one], for which the IC50 is under 500 nM against BRD4(BD1) (setting [4]), under 500 nM in test [1] (setting [8]), under 500 nM in test [2] (setting [9]) and over 5000 nM in test [3] (setting [10]).
For the compound `Cc1cc(-c2nc(NS(C)(=O)=O)ncc2Oc2ccc(F)cc2F)cn(CC2CC2)c1=O` [Example 248, N-[4-[1-(cyclopropylmethyl)-5-methyl-6-oxopyridin-3-yl]-5-(2,4-difluorophenoxy)pyrimidin-2-yl]methanesulfonamide], the IC50 against BRD4(BD1) (setting [4]) was under 500 nM; in test [1] (setting [5]), under 500 nM; in test [2] (setting [6]), under 500 nM; in test [3] (setting [7]) it was over 5000 nM.
